Results on 4 compounds are retold here after ChEMBL document CHEMBL4825690, “Synthesis and biological evaluation of chalcone-polyamine conjugates as novel vectorized agents in colorectal and prostate cancer chemotherapy” (Eur J Med Chem, 2021).

Holding throughout (type): functional, cell-based
Test [1] relates to DU-145. Put plainly: Antiproliferative activity against human DU145 cells assessed as reduction in cell viability incubated for 48 hr by MTT assay. Particulars: DU-145, 48 h.
Test [2] has as its system PC-3. The test can be described thus: Antiproliferative activity against human PC3 cells assessed as reduction in cell viability incubated for 48 hr by MTT assay. The conditions noted are these: PC-3, 48 h.
Test [3] concerns HT-29. Put plainly: Antiproliferative activity against human HT29 cells assessed as reduction in cell viability incubated for 48 hr by MTT assay. The conditions noted are these: HT-29, 48 h.
Test [4] concerns HCT-116. The test can be described thus: Antiproliferative activity against human HCT116 cells assessed as reduction in cell viability incubated for 48 hr by MTT assay. Particulars: HCT-116, 48 h.

pIC50: −log10 of the molar value.

`COc1cc(C(=O)/C=C/c2ccc(OCCCNCCCCN)cc2)cc(OC)c1OC`: the pIC50 is 5.08 in test [1], 4.70 in test [2], 4.70 in test [3] and 4.91 in test [4].
On to `COc1cc(C(=O)/C=C/c2ccc(OCCCNCCCNCCCCNCCCN)cc2)cc(OC)c1OC`, for which the pIC50 was 4.97 in test [1], 4.85 in test [2], under 4.40 in test [3] and 4.93 in test [4].
Turning to `COc1cc(C(=O)/C=C/c2ccc(OCCCNCCCN)cc2)cc(OC)c1OC`, the pIC50 is 4.99 in test [1], 4.69 in test [2], 4.86 in test [3] and 4.66 in test [4].
With `COc1cc(C(=O)/C=C/c2ccc(OCCCNCCCCNCCCN)cc2)cc(OC)c1OC`, the pIC50 is 4.69 in test [1], 4.49 in test [2], 4.50 in test [3] and 4.69 in test [4].

A word on the pIC50: it is −log10 of the IC50, conventionally taken in molar units.
